Measured values reported in the NIST ThermoML archive (doi:10.1021/je100832h).

Tests used:
[1] = xn = mol fraction of the nth substance listed; conditions: 101.32 kPa, Liquid, Vibrating tube method
[2] = Liquid; for mass density: 101.32 kPa, Vibrating tube method; for vapor or sublimation pressure: Ebulliometric method (Recirculating still)

CCOC(C)=O [ethyl acetate] + CCCCC
[1], x1 = 1
Conditions | mass density [kg/m3]
291.15 K | 902.88
298.15 K | 894.4

CCOC(C)=O [ethyl acetate] + CCCCCCCC
[1], x1 = 1
Conditions | mass density [kg/m3]
291.15 K | 902.88
298.15 K | 894.4
318.15 K | 869.6
328.15 K | 857.17

CCOC(C)=O [ethyl acetate] + CCCCCCCCC
[1], x1 = 1
Conditions | mass density [kg/m3]
291.15 K | 902.88
298.15 K | 894.4
318.15 K | 869.6
328.15 K | 857.17

CCOC(C)=O [ethyl acetate] + CCCCCCCCCC
[1], x1 = 1
Conditions | mass density [kg/m3]
291.15 K | 902.88
298.15 K | 894.4
318.15 K | 869.6
328.15 K | 857.17

CCCCCCC [heptane]
[2]
Conditions | mass density [kg/m3] | vapor or sublimation pressure [kPa]
291.15 K | 685.28 | –
298.15 K | 679.48 | –
305.26 K | – | 8.32
310.22 K | – | 10.55
314.93 K | – | 13.09
316.5 K | – | 14.07
318.15 K | 662.06 | –
319.71 K | – | 16.19
323.62 K | – | 19.1
326.44 K | – | 21.45
328.15 K | 653.6 | –
329.04 K | – | 23.79
331.48 K | – | 26.14
333.21 K | – | 27.97
335.5 K | – | 30.51
337.48 K | – | 32.84
339.56 K | – | 35.53
341.35 K | – | 37.87
342.96 K | – | 40.12
344.47 K | – | 42.35
346.04 K | – | 44.75
347.28 K | – | 46.71
348.72 K | – | 49.09
350.12 K | – | 51.49
351.21 K | – | 53.41
352.49 K | – | 55.76
353.62 K | – | 57.88
354.79 K | – | 60.18
356.25 K | – | 63.11
357.84 K | – | 66.42
358.68 K | – | 68.27
359.98 K | – | 71.15
361.33 K | – | 74.25
362.3 K | – | 76.55
363.32 K | – | 79
364.24 K | – | 81.28
365.32 K | – | 84.05
366.2 K | – | 86.3
366.87 K | – | 88.1
367.97 K | – | 91.09
368.83 K | – | 93.46
369.84 K | – | 96.33
370.85 K | – | 98.98
371.11 K | – | 100
371.35 K | – | 100.68
371.56 K | – | 101.32
372.42 K | – | 103.92
373.25 K | – | 106.48
373.98 K | – | 108.71
374.93 K | – | 111.77
375.41 K | – | 113.35
376.29 K | – | 116.21
377.17 K | – | 119.14
377.51 K | – | 120.32
378.49 K | – | 123.7
379.37 K | – | 126.8
380.26 K | – | 130
380.83 K | – | 132.04
392.89 K | – | 182.39
393.79 K | – | 186.6
394.43 K | – | 189.67
395.1 K | – | 192.97
395.73 K | – | 196.04
396.09 K | – | 197.85
396.5 K | – | 199.97

CCCCCCC [heptane] + CCOC(C)=O
[1], x2 = 0
Conditions | mass density [kg/m3]
291.15 K | 685.28
298.15 K | 679.48
318.15 K | 662.06
328.15 K | 653.6

CCCCCC [hexane]
[2]
Conditions | mass density [kg/m3] | vapor or sublimation pressure [kPa]
291.15 K | 661.17 | –
292.98 K | – | 15.88
296.27 K | – | 18.39
298.15 K | 654.9 | –
298.95 K | – | 20.69
302.2 K | – | 23.81
304.49 K | – | 26.19
306.76 K | – | 28.77
308.28 K | – | 30.68
310.14 K | – | 32.97
311.96 K | – | 35.53
313.7 K | – | 37.95
315.07 K | – | 40.1
316.51 K | – | 42.3
317.91 K | – | 44.59
318.15 K | 636.5 | –
319.58 K | – | 47.35
320.83 K | – | 49.63
322.02 K | – | 51.87
323.45 K | – | 54.51
324.35 K | – | 56.42
325.74 K | – | 59.15
327.09 K | – | 62.05
327.99 K | – | 64.02
328.15 K | 627 | –
329.13 K | – | 66.61
330.14 K | – | 68.93
330.93 K | – | 70.86
331.87 K | – | 73.11
332.87 K | – | 75.62
333.77 K | – | 78.04
334.61 K | – | 80.11
335.65 K | – | 82.94
336.53 K | – | 85.4
337.38 K | – | 87.73
338.26 K | – | 90.28
339.25 K | – | 93.18
340.1 K | – | 95.79
340.92 K | – | 98.28
341.17 K | – | 99.08
341.6 K | – | 100.39
341.88 K | – | 101.32
342.34 K | – | 102.83
343.01 K | – | 104.95
343.62 K | – | 106.98
344.52 K | – | 110.01
344.69 K | – | 110.65
345.43 K | – | 113.16
346.05 K | – | 115.31
346.66 K | – | 117.46
347.36 K | – | 119.99
348.05 K | – | 122.52
348.44 K | – | 124.01
349.04 K | – | 126.23
349.61 K | – | 128.44
349.82 K | – | 129.32
350.34 K | – | 131.23
350.82 K | – | 133.07
351.42 K | – | 135.49
351.93 K | – | 137.54
352.53 K | – | 139.99
352.83 K | – | 141.31
353.22 K | – | 142.8
353.87 K | – | 145.75
354.23 K | – | 147.04
354.71 K | – | 149.34
355.4 K | – | 152.14
355.66 K | – | 153.31
356.04 K | – | 155.14
356.52 K | – | 157.29
357.01 K | – | 159.38
357.38 K | – | 161.05
357.8 K | – | 162.94
358.47 K | – | 166.02
358.88 K | – | 167.98
359.18 K | – | 169.31
359.69 K | – | 171.84
359.9 K | – | 172.89
360.51 K | – | 175.78
360.8 K | – | 177.31
361.09 K | – | 178.67
361.54 K | – | 180.95
361.86 K | – | 182.61
362.43 K | – | 185.32
362.68 K | – | 186.64
362.98 K | – | 188.2
363.52 K | – | 191.05
363.95 K | – | 193.35

CCCCCC [hexane] + CCOC(C)=O
[1], x2 = 0
Conditions | mass density [kg/m3]
291.15 K | 661.17
298.15 K | 654.9
318.15 K | 636.5
328.15 K | 627
